The values below are quoted from earlier work in patent US20090118503A1, “FAAH INHIBITORS” (priority 2007, published 2009).

Molecules are shown by their SMILES.

For one data set, the system named is MCF-7 cells. The conditions noted are these: up to 100 μM.

For `CCCCC/C=C\C/C=C\C/C=C\C/C=C\CCCC(=O)NCCO` [anandamide], the “cell viability (as assessed by trypan blue)” value in the data set with MCF-7 cells is “No significant decrease in cell viability”.

With `Cc1c(CC(=O)O)c2cc(O)ccc2n1C(=O)c1ccc(Cl)cc1` [desmethyl metabolite, (1-(4-chlorobenzoyl)-5-hydroxy-2-methyl-1H-indol-3-yl]acetic acid], the “ability to inhibit prostaglandin synthesis” value with prostaglandin synthesis was “some ability to inhibit prostaglandin synthesis”.
